Data from patent US9382188B2, “Aromatic ring compound” (TAKEDA PHARMACEUTICAL COMPANY LIMITED, priority 2012, dated 2016).

Biological target: T1, human GPR40 (Homo sapiens, UniProt O14842)
T1 construct: expressed in transfected cells
Experiment: Evaluation of human GPR40 agonist activity with increase in intracellular Ca2+ concentration as an index (FLIPR Tetra)
Type: cell-based
Conditions: test compound 1 μM; CHO(dhfr-) cells stably expressing human GPR40; 100% = activity of 1 μM WO2009/048527 Example 99.2, 0% = DMSO
Experimental: Evaluation of human GPR40 agonist activity with increase in intracellular Ca^2+ concentration as an index
CHO(dhfr-) cells that stably expressed human GPR40 were suspended in MEMα (Nikken Bio Medical Laboratory) containing 10% dialysis serum (GEMINI BIO-PRODUCTS), 10 mM HEPES (Invitrogen), 100 U/mL penicillin, 100 μg/mL streptomycin (Invitrogen), and plated on a 384 well black/clear cell culture plate at 10,000 cells/well. After culture overnight in a CO2 incubator at 37° C., the culture supernatant was removed, and a loading buffer [dye attached to Calcium 5 Assay Kit (Molecular Devices) was dissolved in an assay buffer (20 mM HEPES, 0.2% fatty acid-free BSA (Sigma-Aldrich), 2.5 mM probenecid (DOJINDO)-containing HBSS (Invitrogen)) added with 0.025% Cremophor EL (DOJINDO)] was added at 37.5 μL/well. After incubation in a CO2 incubator at 37° C. for 1 hr, the cells were stood at room temperature for 15 min, an assay buffer containing the test compound at a final concentration of 1 μM was added at 12.5 μL/well in FLIPR Tetra (Molecular Devices), and the fluorescence amount was successively measured. Human GPR40 agonist activity calculated using an increase in the intracellular Ca^2+ concentration as an index, wherein the activity of 1 μM of the compound described in WO 2009/048527 (WO2009/048527 Example 99.2) was 100%, and the activity when DMSO was added instead of the test compound was 0%.

T1 sequence (O14842 whole entry): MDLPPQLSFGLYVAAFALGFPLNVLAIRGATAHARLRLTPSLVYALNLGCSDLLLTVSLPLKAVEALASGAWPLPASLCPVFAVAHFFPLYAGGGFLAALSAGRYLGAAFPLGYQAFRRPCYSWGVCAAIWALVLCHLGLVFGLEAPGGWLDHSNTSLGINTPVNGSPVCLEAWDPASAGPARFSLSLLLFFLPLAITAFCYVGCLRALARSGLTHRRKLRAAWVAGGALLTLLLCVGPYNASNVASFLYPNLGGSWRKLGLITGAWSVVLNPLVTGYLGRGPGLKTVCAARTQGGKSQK

Structure (SMILES) | activation at 1 µM [%]
CC(C)(C)Cc1cc(OCc2cccc(C(CC(=O)O)C3CC3)c2)cnc1-c1cc(C#N)ccc1F (centres unmarked) [Example 60, 3-(3-(((6-(5-cyano-2-fluorophenyl)-5-(2,2-dimethylpropyl)pyridin-3-yl)oxy)methyl)phenyl)-3-cyclopropylpropanoic acid] | 56
COc1cc(OC)cc(-c2ncc(OCc3cccc(C(CC(=O)O)C4CC4)c3)cc2CC(C)(C)C)c1 (centres unmarked) [Example 56, 3-cyclopropyl-3-(3-(((6-(3,5-dimethoxyphenyl)-5-(2,2-dimethylpropyl)pyridin-3-yl)oxy)methyl)phenyl)propanoic acid] | 31
COc1ccccc1-c1ncc(OCc2cccc(C(CC(=O)O)C3CC3)c2)cc1CC(C)(C)C (centres unmarked) [Example 50, 3-cyclopropyl-3-(3-(((5-(2,2-dimethylpropyl)-6-(2-methoxyphenyl)pyridin-3-yl)oxy)methyl)phenyl)propanoic acid] | 9
COc1ccc(F)c(-c2ccc(OCc3cc(C(CC(=O)O)C4CC4)ccn3)cc2CC(C)(C)C#N)c1 (centres unmarked) [Example 27, 3-(2-(((2-(2-cyano-2-methylpropyl)-2′-fluoro-5′-methoxybiphenyl-4-yl)oxy)methyl)pyridin-4-yl)-3-cyclopropylpropanoic acid] | 119
COc1ccc(-c2ncc(OCc3cccc(C(CC(=O)O)C4CC4)c3)cc2CC(C)(C)C)cc1 (centres unmarked) [Example 48, 3-cyclopropyl-3-(3-(((5-(2,2-dimethylpropyl)-6-(4-methoxyphenyl)pyridin-3-yl)oxy)methyl)phenyl)propanoic acid] | -1
COc1ccc(F)c(-c2ccc(OCc3cccc(C(CC(=O)O)C(C)C)c3)cc2CC(C)(C)C)c1 (centres unmarked) [Example 78, 3-(3-(((2′-fluoro-5′-methoxy-2-neopentyl-[1,1′-biphenyl]-4-yl)oxy)methyl)phenyl)-4-methylpentanoic acid] | 118
COc1ccc(F)c(-c2ccc(OCc3cccc(C(CC(=O)O)CC(=O)O)c3)cc2CC(C)(C)C)c1 [Example 82, 3-(3-(((2′-fluoro-5′-methoxy-2-neopentyl-[1,1′-biphenyl]-4-yl)oxy)methyl)phenyl)pentanedioic acid] | 5
CC(C)(C)Cc1cc(OCc2cccc(C(CC(=O)O)C3CC3)c2)cnc1-c1cccc(NS(C)(=O)=O)c1 (centres unmarked) [Example 62, 3-cyclopropyl-3-(3-(((5-(2,2-dimethylpropyl)-6-(3-((methylsulfonyl)amino)phenyl)pyridin-3-yl)oxy)methyl)phenyl)propanoic acid] | 4
COc1ccc(F)c(-c2ccc(OCc3cccc(OCC(=O)O)c3)cc2CC(C)(C)C)c1 [Example 2, (3-(((2-(2,2-dimethylpropyl)-2′-fluoro-5′-methoxybiphenyl-4-yl)oxy)methyl)phenoxy)acetic acid] | 108
COc1cncc(-c2ncc(OCc3cccc(C(CC(=O)O)C4CC4)c3)cc2CC(C)(C)C)c1 (centres unmarked) [Example 66, 3-cyclopropyl-3-(3-(((3-(2,2-dimethylpropyl)-5′-methoxy-2,3′-bipyridin-5-yl)oxy)methyl)phenyl)propanoic acid] | 57
CCOC(=O)CC(CC(=O)O)c1cccc(COc2ccc(-c3cc(OC)ccc3F)c(CC(C)(C)C)c2)c1 (centres unmarked) [Example 81, 5-ethoxy-3-(3-(((2′-fluoro-5′-methoxy-2-neopentyl-[1,1′-biphenyl]-4-yl)oxy)methyl)phenyl)-5-oxopentanoic acid] | 134
COCCCOc1ccc(F)c(-c2ncc(OCc3cccc(C(CC(=O)O)C4CC4)c3)cc2CC(C)(C)C)c1 (centres unmarked) [Example 72, 3-cyclopropyl-3-(3-(((5-(2,2-dimethylpropyl)-6-(2-fluoro-5-(3-methoxypropoxy)phenyl)pyridin-3-yl)oxy)methyl)phenyl)propanoic acid] | 1
COc1ccc(F)c(-c2ccc(OCc3cc(C(CC(=O)O)C4CC4)ncn3)cc2CC(C)(C)C)c1 (centres unmarked) [Example 31, 3-cyclopropyl-3-(6-(((2-(2,2-dimethylpropyl)-2′-fluoro-5′-methoxybiphenyl-4-yl)oxy)methyl)pyrimidin-4-yl)propanoic acid] | 108
COc1ccc(F)c(-c2ccc(OCc3cccc(C(CC(N)=O)CC(=O)O)c3)cc2CC(C)(C)C)c1 (centres unmarked) [Example 83, 5-amino-3-(3-(((2′-fluoro-5′-methoxy-2-neopentyl-[1,1′-biphenyl]-4-yl)oxy)methyl)phenyl)-5-oxopentanoic acid] | 34

The remaining lines, values ahead:

activation at 1 µM [%] | Structure (SMILES)
113 | COc1ccc(F)c(-c2ccc(OCc3cccc(C(CC(=O)O)C4CC4)c3)cc2CCC(C)(C)OC)c1 (centres unmarked) [Example 92, 3-cyclopropyl-3-(3-(((2′-fluoro-5′-methoxy-2-(3-methoxy-3-methylbutyl)biphenyl-4-yl)oxy)methyl)phenyl)propanoic acid]
110 | COc1ccc(F)c(-c2ccc(OCc3cccc(C(CC(=O)O)C4CC4)c3)cc2C(F)CC(C)(C)C)c1 (centres unmarked) [Example 94, 3-cyclopropyl-3-(3-(((2′-fluoro-2-(1-fluoro-3,3-dimethylbutyl)-5′-methoxybiphenyl-4-yl)oxy)methyl)phenyl)propanoic acid]
110 | COc1ccc(F)c(-c2ccc(OCc3cccc(C(CC(=O)O)C4CC4)c3)nc2CC(C)(C)C)c1 (centres unmarked) [Example 4, 3-cyclopropyl-3-(3-(((6-(2,2-dimethylpropyl)-5-(2-fluoro-5-methoxyphenyl)pyridin-2-yl)oxy)methyl)phenyl)propanoic acid]
99 | COc1ccc(F)c(-c2ncc(OCc3cccc(C(CC(=O)O)C4CC4)c3)cc2CC(C)(C)C)c1 (centres unmarked) [Example 22, 3-cyclopropyl-3-(3-(((5-(2,2-dimethylpropyl)-6-(2-fluoro-5-methoxyphenyl)pyridin-3-yl)oxy)methyl)phenyl)propanoic acid]
100 | COc1ccc(F)c(-c2ccc(OCc3cccc(C(CC(=O)O)C4CC4)c3)cc2CC2(C#N)CCC2)c1 (centres unmarked) [Example 102, 3-(3-(((2-((1-cyanocyclobutyl)methyl)-2′-fluoro-5′-methoxybiphenyl-4-yl)oxy)methyl)phenyl)-3-cyclopropylpropanoic acid]
108 | CCC(C)(CC)Cc1cc(OCc2cccc(C(CC(=O)O)C3CC3)c2)ccc1-c1cc(OC)ccc1F (centres unmarked) [Example 112, 3-cyclopropyl-3-(3-(((2-(2-ethyl-2-methylbutyl)-2′-fluoro-5′-methoxybiphenyl-4-yl)oxy)methyl)phenyl)propanoic acid]
111 | CCC(CC)(CC)Cc1cc(OCc2cccc(C(CC(=O)O)C3CC3)c2)ccc1-c1cc(OC)ccc1F (centres unmarked) [Example 111, 3-cyclopropyl-3-(3-(((2-(2,2-diethylbutyl)-2′-fluoro-5′-methoxybiphenyl-4-yl)oxy)methyl)phenyl)propanoic acid]
96 | CCC(C)(C)Cc1cc(OCc2cccc(C(CC(=O)O)C3CC3)c2)ccc1-c1cc(OC)ccc1F (centres unmarked) [Example 106, 3-cyclopropyl-3-(3-(((2-(2,2-dimethylbutyl)-2′-fluoro-5′-methoxybiphenyl-4-yl)oxy)methyl)phenyl)propanoic acid]
134 | C=CC(CC(=O)O)c1cccc(COc2ccc(-c3cc(OC)ccc3F)c(CC(C)(C)C)c2)c1 (centres unmarked) [Example 79, 3-(3-(((2′-fluoro-5′-methoxy-2-neopentyl-[1,1′-biphenyl]-4-yl)oxy)methyl)phenyl)pent-4-enoic acid]
